Measurements as given in paper PMC11359702, “Synthesis and Biochemical Evaluation of Ethanoanthracenes and Related Compounds: Antiproliferative and Pro-Apoptotic Effects in Chronic Lymphocytic Leukemia (CLL)” (Pharmaceuticals, 2024).
Several values for one entry are separate records, joined by “and”; a condition that tells them apart may be missing. Equal entries are not always repeated. Where two headings read alike, the source gives them in different places.

What was measured:
BT-549 = assay: NCI-60 five-dose assay; format: cell-based, human
Experimental: (§1) A number of our most promising compounds identified through preliminary cell viability testing (23c, 23d, 23f, 23h, 23l, 23m, 23n, 23o, 24f, 24l, 25n and 26n) were selected for NCI drug screening in the 60-cell-line panel. The panel includes nine subcategories based on cancer tissue types, which include leukemia, ovarian, central nervous system, breast, lung, prostate, skin, renal and colon cancer. The compounds were initially assessed in a one-dose assay at a fixed treatment concentration of 10 µM. The compounds selected for further investigation were progressed to a five-dose assay across the concentration ranges of 0.01, 0.1, 1, 10 and 100 µM [72]. The endpoints assessed in the screening protocol were GI50, TGI and LC50 [72].

ACHN = assay: NCI-60 five-dose assay; format: cell-based, human
Experimental: as §1

UO-31 = assay: NCI-60 five-dose assay; format: cell-based, human
Experimental: as §1

OVCAR-5 = assay: NCI-60 five-dose assay; format: cell-based, human
Experimental: as §1

SF-268 = assay: NCI-60 five-dose assay; format: cell-based, human
Experimental: as §1

MDA-MB-468 = assay: NCI-60 five-dose assay; format: cell-based, human
Experimental: as §1

SNB-75 = assay: NCI-60 five-dose assay; format: cell-based, human
Experimental: as §1

MCF-7 = assay: NCI-60 five-dose assay; format: cell-based, human
Experimental: as §1

786-0 = assay: NCI-60 five-dose assay; format: cell-based, human
Experimental: as §1

NCI-H23 = assay: NCI-60 five-dose assay; format: cell-based, human
Experimental: as §1

OVCAR-8 = assay: NCI-60 five-dose assay; format: cell-based, human
Experimental: as §1

RPMI-8226 = assay: NCI-60 five-dose assay; format: cell-based, human
MOLT-4 = assay: NCI-60 five-dose assay; format: cell-based, human
HG-3 cells [1] = assay: alamarBlue cell viability assay; details: HG-3, 24 h; for IC50: read-out: HG-3 IC50; for viability at 10 µM: read-out: cell viability, HG-3, 10 µM, 24 h, vehicle = 100%
CCRF-CEM = assay: NCI-60 five-dose assay; format: cell-based, human
HL-60(TB) = assay: NCI-60 five-dose assay; format: cell-based, human
HG-3 cells [2] = assay: LDH cytotoxicity assay (CytoTox 96); format: cell-based; details: HG-3, 10 µM, 24 h, lysis solution = 100%
Description: (§2) The lactate dehydrogenase (LDH) assay is used to assess the membrane integrity of cells as a function of the cytoplasmic LDH released. The loss of cell membrane integrity (due to cytotoxic insult) is detectable through LDH release into the cell growth medium. The assay is initiated via the reduction in cellular co-factor NAD^+ to NADH catalyzed via the LDH enzyme. Newly formed NADH catalyzes the acidic reduction in iodonitrotetrazolium chloride (INT) to the highly colored formazan (red) (mediated via the diaphorase enzyme). […] At the 10-µM treatment concentration, mild to moderate cytotoxicity (19–47%) was observed. […] Cytotoxicity remained low to mild at 1 µM (4–18%) with 23a displaying the lowest LDH release (4%).
(§3) Following the treatment of the HG-3 and PGA-1 cells at 10 µM for 24 hr, the amount of LDH released was determined using an LDH assay kit from Promega (G1780). Cell lysis solution = 100% cell lysis and LDH release). Data are presented as % cell death at a concentration of 10 µM. Cells were treated with ethanoanthracene compounds 20a, 20f, 23a and 25n (1 µM and 10 µM) for 24 h. Values are shown as the mean of three independent experiments.
(§4) The cytotoxicity of the selected compounds 20a, 20f, 23a and 25n was determined using the CytoTox 96 non-radioactive cytotoxicity assay (Promega Corporation; 2800 Woods Hollow Road, Madison, WI, USA). CLL cells HG-3 and PGA-1 were incubated for 24 h and then treated with the selected compounds 20a, 20f, 23a and 25n at 10-µM and 1-µM concentrations, following the protocol outlined above in the cell viability assay. After 24 h, the lysis solution (10×) (20 µL) was added, and the cells were incubated for a further 1 h to ensure complete cell death. Supernatant (50 µL) was removed from each well and transferred to a clean 96-well plate. “Substrate mix” (50 µL) was added, and the plate was stored in the dark at 20 °C for 30 min. “Stop solution” (50 µL) was added to each well, and the absorbance at 490 nm was recorded using a Dynatech MR5000 plate reader; the % cell death was determined relative to the control cell lysis solution.

PGA-1 cells [3] = assay: LDH cytotoxicity assay (CytoTox 96); format: cell-based; details: 24 h
Description: as §2, §3, §4

HG-3 cells [4] = assay: Annexin V/PI apoptosis assay (FACS); format: cell-based, human
Experimental: (§5) The pro-apoptotic effects of selected nitrovinylethanoanthracene compounds 20a and 20f and anthracene chalcones 23a and 25n in HG-3 cells and PGA-1 cells was then investigated using FITC (fluorescein isothiocyanate), Annexin V/PI (propidium iodide) and FACS (fluorescence-activated cell sorting) analysis to characterize the mode of cellular death induced. Apoptosis was assessed as % total apoptosis (total of early (Q3) and late (Q2) apoptosis).
(§6) CLL cells PGA-1 and HG-3 (1 × 10^6 cells/mL) were treated at 37 °C with either the vehicle (1% (v/v) DMSO) or the ethanoanthracene compounds 20a, 20f, 23a and 25n (10 µM, 5 µM and 1 µM) for 48 h, following the protocol previously described. The cells were then harvested via centrifugation at 400× g in a temperature-controlled Sorvall centrifuge. The cells were rinsed with Ca^2+ Annexin-V-binding buffer (0.1 M HEPES, pH 7.4; 0.14 M NaCl; 25 mM CaCl2, 0.5 mL). The samples were resuspended in FITC Annexin V (diluted 1:33 in Ca^2+ Annexin V-binding buffer, 50 µL) and incubated for 10 min (on ice and protected from light). The samples were washed with Annexin-V-binding buffer and resuspended in a PI solution (0.5 µg/mL, 500 µL) and analyzed within 1 h using a BD Accuri C6 flow cytometer counting 10,000 cells using the FlowJo software Version 10 (FlowJo LLC, Ashland, OR, USA).

PGA-1 cells [5] = assay: Annexin V/PI apoptosis assay (FACS); format: cell-based, human; details: PGA-1, 10 µM
Experimental: as §5, §6

[6] = Homo sapiens, RPMI-8226, RPMI-8226

Compound	GI50 (BT-549; Homo sapiens) [nM]	GI50 (ACHN; Homo sapiens) [nM]	GI50 (UO-31; Homo sapiens) [nM]	GI50 (OVCAR-5; Homo sapiens) [nM]	GI50 (SF-268; Homo sapiens) [nM]	GI50 (MDA-MB-468; Homo sapiens) [nM]	GI50 (MCF-7; Homo sapiens, MCF7) [nM]	GI50 (786-0; Homo sapiens) [nM]	GI50 (NCI-H23; Homo sapiens) [nM]	GI50 (OVCAR-8; Homo sapiens) [nM]	GI50 (RPMI-8226; [6]) [nM]	GI50 (RPMI-8226; RPMI-8226) [nM]	GI50 (MOLT-4; Homo sapiens, MOLT-4, MOLT-4) [nM]	GI50 (MOLT-4; MOLT-4) [nM]	IC50 (HG-3 cells [1]; Homo sapiens) [nM]	GI50 (CCRF-CEM) [nM]	GI50 (HL-60(TB); HL-60(TB)) [nM]	LDH release (cytotoxicity, % cell death) (HG-3 cells [2]) [%]	LDH release (cytotoxicity, % cell death) (PGA-1 cells [3]; PGA-1, 10 µM) [%]	viability at 10 µM (HG-3 cells [1]; Homo sapiens) [%]	other results
O=C(/C=C/C12c3ccccc3C(c3ccccc31)C1C(=O)NC(=O)C12)c1ccc(F)cc1 (racemic) [Compound 23h]	1370	1390	1120	1600	4560	1880	885	2440	2610	1430	1620	1160	460	759	4650	–	–	–	–	–	GI50 (SNB-75; Homo sapiens): 1370 nM
O=C(/C=C/C12c3ccccc3C(c3ccccc31)C1C(=O)NC(=O)C12)c1ccc(Cl)cc1 (racemic) [Compound 23l, (E)-9-(3-(4-Chlorophenyl)-3-oxoprop-1-en-1-yl)-9,10-dihydro-9,10-[3,4]epipyrroloanthracene-12,14-dione]	–	–	–	–	–	–	–	–	–	–	–	1660	–	1700	–	1660	1470	–	–	–	GI50 (BT-549): 1340 nM; GI50 (ACHN): 1650 nM; GI50 (UO-31): 1280 nM; GI50 (OVCAR-5): 1580 nM; GI50 (SF-268): 1990 nM; GI50 (MDA-MB-468): 1700 nM; GI50 (SNB-75): 1100 nM; GI50 (MCF-7): 1340 nM; GI50 (786-0): 1730 nM; GI50 (NCI-H23): 1780 nM; GI50 (OVCAR-8): 1130 nM; IC50 (HG-3 cells [1]): 2230 nM
O=C(C=CC12c3ccccc3C(c3ccccc31)C1C(=O)NC(=O)C12)c1ccc(Br)cc1 (stereo not drawn) [Compound 23a, 9-(E)-3-(4-Bromophenyl)-3-oxoprop-1-en-1-yl)-9,10-dihydro-9,10-[3,4]epipyrroloanthracene-12,14-dione]	–	–	–	–	–	–	–	–	–	–	–	–	–	–	2690	–	–	25	23	0.5	LDH release (cytotoxicity, % cell death) (PGA-1 cells [3]; PGA-1, 1 µM): 4%; total apoptosis (early Q3 + late Q2) (HG-3 cells [4]; HG-3, 1 µM): 33%; total apoptosis (early Q3 + late Q2) (HG-3 cells [4]; HG-3, 10 µM): 82–95% and 95%; total apoptosis (early Q3 + late Q2) (PGA-1 cells [5]): 87–97% and 89%
O=C(C=CC12c3ccccc3C(c3ccccc31)C1C(=O)N(c3ccc(Cl)cc3)C(=O)C12)c1ccccn1 (stereo not drawn) [Compound 25n, (E)-13-(4-Chlorophenyl)-9-(3-oxo-3-(pyridin-2-yl)prop-1-en-1-yl)-9,10-dihydro-9,10-[3,4]epipyrroloanthracene-12,14-dione]	295	299	208	568	699	627	326	216	446	409	250	252	320	366	1310	321	292	47	15	2	viability at 1 µM (HG-3 cells [1]; Homo sapiens, read-out: cell viability, HG-3, 1 µM, 24 h, vehicle = 100%): 30%; total apoptosis (early Q3 + late Q2) (HG-3 cells [4]; HG-3, 1 µM): 37%; total apoptosis (early Q3 + late Q2) (HG-3 cells [4]; HG-3, 10 µM): 82–95% and 93%; total apoptosis (early Q3 + late Q2) (PGA-1 cells [5]): 87–97% and 87%; GI50 (CCRF-CEM; Homo sapiens): 320 nM; GI50 (HL-60(TB); Homo sapiens, HL-60, HL-60(TB)): 290 nM
